# Experimental data reported in ChEMBL document CHEMBL1275440, “In vitro activity of telavancin against resistant gram-positive bacteria” (2008).
# Calls of active or inactive are those of the source. The rule behind the calls is not given here.
# Legend:
# Streptococcus pyogenes [1] = experiment: Antibacterial activity against Streptococcus pyogenes MED 2040 by broth microdilution method; type: functional
# Streptococcus agalactiae [2] = experiment: Antibacterial activity against Streptococcus agalactiae MED 2038 by broth microdilution method; type: functional
# Streptococcus pneumoniae [3] = experiment: Antibacterial activity against multidrug resistant Streptococcus pneumoniae MED 1090 by broth microdilution method; type: functional
# Enterococcus faecium [4] = experiment: Antibacterial activity against vancomycin resistant Enterococcus faecium VanB clinical isolate assessed as susceptibility level by broth microdilution method; type: functional
# Enterococcus faecium [5] = experiment: Antibacterial activity against vancomycin resistant Enterococcus faecium VanA clinical isolate assessed as susceptibility level by broth microdilution method; type: functional
# Enterococcus faecalis [6] = experiment: Antibacterial activity against vancomycin resistant Enterococcus faecalis VanB clinical isolate assessed as susceptibility level by broth microdilution method; type: functional
# Enterococcus faecalis [7] = experiment: Antibacterial activity against vancomycin resistant Enterococcus faecalis VanA clinical isolate assessed as susceptibility level by broth microdilution method; type: functional
# Streptococcus viridans [8] = experiment: Antibacterial activity against Streptococcus viridans clinical isolate assessed as susceptibility level by broth microdilution method; type: functional
# [9] = system: Streptococcus constellatus; experiment: Antibacterial activity against Streptococcus constellatus clinical isolate assessed as susceptibility level by broth microdilution method; type: functional
# Streptococcus oralis [10] = experiment: Antibacterial activity against Streptococcus oralis clinical isolate assessed as susceptibility level by broth microdilution method; type: functional
# [11] = system: Streptococcus intermedius; experiment: Antibacterial activity against Streptococcus intermedius clinical isolate assessed as susceptibility level by broth microdilution method; type: functional
# Streptococcus mitis [12] = experiment: Antibacterial activity against Streptococcus mitis clinical isolate assessed as susceptibility level by broth microdilution method; type: functional
# Streptococcus agalactiae [13] = experiment: Antibacterial activity against Streptococcus agalactiae group B clinical isolate assessed as susceptibility level by broth microdilution method; type: functional
# Streptococcus pyogenes [14] = experiment: Antibacterial activity against Streptococcus pyogenes group A clinical isolate assessed as susceptibility level by broth microdilution method; type: functional
# Streptococcus pneumoniae [15] = experiment: Antibacterial activity against multidrug-resistant Streptococcus pneumoniae clinical isolate assessed as susceptibility level by broth microdilution method; type: functional
# Streptococcus pneumoniae [16] = experiment: Antibacterial activity against penicillin resistant Streptococcus pneumoniae clinical isolate assessed as susceptibility level by broth microdilution method; type: functional
# Streptococcus pneumoniae [17] = experiment: Antibacterial activity against penicillin intermediate Streptococcus pneumoniae clinical isolate assessed as susceptibility level by broth microdilution method; type: functional
# [18] = system: Staphylococcus saprophyticus; experiment: Antibacterial activity against methicillin resistant coagulase-negative Staphylococcus saprophyticus clinical isolate assessed as susceptibility level by broth microdilution method; type: functional
# [19] = (§1) Antibacterial activity against methicillin resistant coagulase-negative Staphylococcus hominis subsp. novobiosepticus clinical isolate assessed as susceptibility level by broth microdilution method; type: functional
# [20] = system: Staphylococcus haemolyticus; experiment: Antibacterial activity against methicillin resistant coagulase-negative Staphylococcus haemolyticus clinical isolate assessed as susceptibility level by broth microdilution method; type: functional
# Staphylococcus capitis [21] = experiment: Antibacterial activity against methicillin resistant coagulase-negative Staphylococcus capitis clinical isolate assessed as susceptibility level by broth microdilution method; type: functional
# [22] = system: Staphylococcus auricularis; experiment: Antibacterial activity against methicillin resistant coagulase-negative Staphylococcus auricularis clinical isolate assessed as susceptibility level by broth microdilution method; type: functional
# [23] = system: Staphylococcus epidermidis; experiment: Antibacterial activity against methicillin resistant Staphylococcus epidermidis clinical isolate assessed as susceptibility level by broth microdilution method; type: functional
# Staphylococcus aureus [24] = experiment: Antibacterial activity against methicillin resistant Staphylococcus aureus clinical isolate assessed as susceptibility level by broth microdilution method; type: functional
# Enterococcus faecium [25] = experiment: Antibacterial activity against vancomycin resistant Enterococcus faecium VanB clinical isolate by broth microdilution method; type: functional
# Enterococcus faecium [26] = experiment: Antibacterial activity against vancomycin resistant Enterococcus faecium VanA clinical isolate by broth microdilution method; type: functional
# Enterococcus faecalis [27] = experiment: Antibacterial activity against vancomycin resistant Enterococcus faecalis VanB clinical isolate by broth microdilution method; type: functional
# Enterococcus faecalis [28] = experiment: Antibacterial activity against vancomycin resistant Enterococcus faecalis VanA clinical isolate by broth microdilution method; type: functional
# Streptococcus viridans [29] = experiment: Antibacterial activity against Streptococcus viridans clinical isolate by broth microdilution method; type: functional
# [30] = system: Streptococcus constellatus; experiment: Antibacterial activity against Streptococcus constellatus clinical isolate by broth microdilution method; type: functional
# Streptococcus oralis [31] = experiment: Antibacterial activity against Streptococcus oralis clinical isolate by broth microdilution method; type: functional
# [32] = system: Streptococcus intermedius; experiment: Antibacterial activity against Streptococcus intermedius clinical isolate by broth microdilution method; type: functional
# Streptococcus mitis [33] = experiment: Antibacterial activity against Streptococcus mitis clinical isolate by broth microdilution method; type: functional
# Streptococcus agalactiae [34] = experiment: Antibacterial activity against Streptococcus agalactiae group B clinical isolate by broth microdilution method; type: functional
# Streptococcus pyogenes [35] = experiment: Antibacterial activity against Streptococcus pyogenes group A clinical isolate by broth microdilution method; type: functional
# Streptococcus pneumoniae [36] = experiment: Antibacterial activity against multidrug-resistant Streptococcus pneumoniae clinical isolate by broth microdilution method; type: functional
# Streptococcus pneumoniae [37] = experiment: Antibacterial activity against penicillin resistant Streptococcus pneumoniae clinical isolate by broth microdilution method; type: functional
# Streptococcus pneumoniae [38] = experiment: Antibacterial activity against penicillin intermediate Streptococcus pneumoniae clinical isolate by broth microdilution method; type: functional
# [39] = system: Staphylococcus saprophyticus; experiment: Antibacterial activity against methicillin resistant coagulase-negative Staphylococcus saprophyticus clinical isolate by broth microdilution method; type: functional
# [40] = (§2) Antibacterial activity against methicillin resistant coagulase-negative Staphylococcus hominis subsp. novobiosepticus clinical isolate by broth microdilution method; type: functional
# [41] = system: Staphylococcus haemolyticus; experiment: Antibacterial activity against methicillin resistant coagulase-negative Staphylococcus haemolyticus clinical isolate by broth microdilution method; type: functional
# Staphylococcus capitis [42] = experiment: Antibacterial activity against methicillin resistant coagulase-negative Staphylococcus capitis clinical isolate by broth microdilution method; type: functional
# [43] = system: Staphylococcus auricularis; experiment: Antibacterial activity against methicillin resistant coagulase-negative Staphylococcus auricularis clinical isolate by broth microdilution method; type: functional
# [44] = system: Staphylococcus epidermidis; experiment: Antibacterial activity against methicillin resistant Staphylococcus epidermidis clinical isolate by broth microdilution method; type: functional
# Staphylococcus aureus [45] = experiment: Antibacterial activity against methicillin resistant Staphylococcus aureus clinical isolate by broth microdilution method; type: functional
# Enterococcus faecalis [46] = system: Enterococcus faecalis
# [47] = system: Staphylococcus hominis subsp. novobiosepticus; experiment: as §1; type: functional
# [48] = system: Staphylococcus hominis subsp. novobiosepticus; experiment: as §2; type: functional
compound,measurement,setting,value
CN[C@H](CC(C)C)C(=O)N[C@H]1C(=O)N[C@@H](CC(N)=O)C(=O)N[C@H]2C(=O)N[C@H]3C(=O)N[C@H](C(=O)N[C@H](C(=O)O)c4cc(O)cc(O)c4-c4cc3ccc4O)[C@H](O)c3ccc(c(Cl)c3)Oc3cc2cc(c3O[C@@H]2O[C@H](CO)[C@@H](O)[C@H](O)[C@H]2O[C@H]2C[C@](C)(N)[C@H](O)[C@H](C)O2)Oc2ccc(cc2Cl)[C@H]1O [VANCOMYCIN],MIC,Streptococcus pyogenes [1],0.25 µg/mL
same,MIC,Streptococcus agalactiae [2],0.25 µg/mL
same,MIC,Streptococcus pneumoniae [3],0.25 µg/mL
same,Activity,Enterococcus faecium [4],0%
same,Activity,Enterococcus faecium [5],0%
same,Activity,Enterococcus faecalis [6],0%
same,Percent of isolates susceptible,Enterococcus faecalis [7],0%
same,Activity,Streptococcus viridans [8],100%
same,Activity,[9],100%
same,Activity,Streptococcus oralis [10],100%
same,Activity,[11],100%
same,Activity,Streptococcus mitis [12],100%
same,Activity,Streptococcus agalactiae [13],100%
same,Activity,Streptococcus pyogenes [14],98%
same,Activity,Streptococcus pneumoniae [15],100%
same,Activity,Streptococcus pneumoniae [16],100%
same,Activity,Streptococcus pneumoniae [17],100%
same,Activity,[18],100%
same,Activity,[19],100%
same,Activity,[20],100%
same,Activity,Staphylococcus capitis [21],100%
same,Activity,[22],100%
same,Activity,[23],100%
same,Activity,Staphylococcus aureus [24],100%
same,MIC50,Enterococcus faecium [25],512 µg/mL
same,MIC90,Enterococcus faecium [25],> 512 µg/mL
same,MIC50,Enterococcus faecium [26],512 µg/mL
same,MIC90,Enterococcus faecium [26],> 512 µg/mL
same,MIC,Enterococcus faecalis [27],32 µg/mL
same,MIC50,Enterococcus faecalis [28],512 µg/mL
same,MIC90,Enterococcus faecalis [28],> 512 µg/mL
same,MIC,Streptococcus viridans [29],0.25 µg/mL
same,MIC50,Streptococcus viridans [29],inactive
same,MIC90,Streptococcus viridans [29],inactive
same,MIC,[30],0.25 µg/mL
same,MIC50,[30],inactive
same,MIC90,[30],inactive
same,MIC,Streptococcus oralis [31],0.25 µg/mL
same,MIC50,Streptococcus oralis [31],inactive
same,MIC90,Streptococcus oralis [31],inactive
same,MIC,[32],0.25 µg/mL
same,MIC50,[32],inactive
same,MIC90,[32],inactive
same,MIC,Streptococcus mitis [33],0.25 µg/mL
same,MIC50,Streptococcus mitis [33],inactive
same,MIC90,Streptococcus mitis [33],inactive
same,MIC,Streptococcus agalactiae [34],0.25 µg/mL
same,MIC50,Streptococcus agalactiae [34],0.25 µg/mL
same,MIC90,Streptococcus agalactiae [34],0.5 µg/mL
same,MIC50,Streptococcus pyogenes [35],0.25 µg/mL
same,MIC90,Streptococcus pyogenes [35],0.5 µg/mL
same,MIC50,Streptococcus pneumoniae [36],0.25 µg/mL
same,MIC90,Streptococcus pneumoniae [36],0.25 µg/mL
same,MIC50,Streptococcus pneumoniae [37],0.25 µg/mL
same,MIC90,Streptococcus pneumoniae [37],0.25 µg/mL
same,MIC50,Streptococcus pneumoniae [38],0.5 µg/mL
same,MIC90,Streptococcus pneumoniae [38],0.5 µg/mL
same,MIC50,[39],2 µg/mL
same,MIC90,[39],2 µg/mL
same,MIC50,[40],2 µg/mL
same,MIC90,[40],2 µg/mL
same,MIC50,[41],2 µg/mL
same,MIC90,[41],2 µg/mL
same,MIC50,Staphylococcus capitis [42],2 µg/mL
same,MIC90,Staphylococcus capitis [42],2 µg/mL
same,MIC50,[43],2 µg/mL
same,MIC90,[43],2 µg/mL
same,MIC,[44],0.5 µg/mL
same,Activity,Staphylococcus aureus [45],100%
same,MIC50,Staphylococcus aureus [45]; Staphylococcus aureus,0.5 µg/mL
same,MIC90,Staphylococcus aureus [45]; Staphylococcus aureus,1 µg/mL
same,MIC50,Enterococcus faecalis [46],inactive
same,MIC90,Enterococcus faecalis [46],inactive
GENTAMICIN,Activity,[18],29%
same,Activity,[47],29%
same,Activity,[20],29%
same,Activity,Staphylococcus capitis [21],29%
same,Activity,[22],29%
same,Activity,[23],35%
same,Activity,Staphylococcus aureus [24],97%
same,MIC50,[39],16 µg/mL
same,MIC90,[39],> 16 µg/mL
same,MIC50,[48],16 µg/mL
same,MIC90,[48],> 16 µg/mL
same,MIC50,[41],16 µg/mL
same,MIC90,[41],> 16 µg/mL
same,MIC50,Staphylococcus capitis [42],16 µg/mL
same,MIC90,Staphylococcus capitis [42],> 16 µg/mL
same,MIC50,[43],16 µg/mL
same,MIC90,[43],> 16 µg/mL
same,MIC50,[44],16 µg/mL
same,MIC90,[44],> 16 µg/mL
same,Activity,Staphylococcus aureus [45],97%
same,MIC50,Staphylococcus aureus [45],0.5 µg/mL
same,MIC90,Staphylococcus aureus [45],2 µg/mL
